Measured values from patent US20130071927A1, “MEDIA AND METHODS FOR CELL CULTURE” (Sydney IVF Limited, priority 2010, published 2013).

Assays:
Type in all cases: cell-based, human
hESC [1] = test: Expansion of single-cell dissociated hESC on feeder cells using protectants in the culture medium
Protocol: Organ culture dishes with various hESC lines (Table 1) were washed once with 1 ml PBS and then dislodged by adding ˜0.2 ml 0.05% trypsin/5 mM EDTA and incubating at 37° C. for 10 mins. After the incubation 1 ml DMEM medium containing 10% FBS was added to inhibit the trypsin, and a single cell suspension was obtained by vigorous pipetting. The cells were counted, pelleted by centrifugation at 250×g for 4 min and resuspended in 5 ml KSR medium containing 20 ng/ml bFGF and 20 μM OPH109, a potent, cell permeable inhibitor of several caspases. The cell suspension was then transferred to a T25 culture flask containing fresh, mitomycin C treated human embryonic fibroblast feeder layer cells and incubated at 37° C., 5% CO2 and 5% O2. The medium was changed after 2 days (and every 2 days thereafter) using KSR medium plus 4 ng/ml bFGF. […] Over the course of 8-10 days these colonies continued growing in size. In contrast, control cultures set up in the same way but without OPH109 in the initial culture medium only contained very few hESC colonies, in concordance with the reported poor viability of hESC after single cell dissociation.
After 8-10 days the cells were harvested by preparing a single cell suspension using trypsin/EDTA as described above. Table 3 list the numbers of cells obtained for various cell lines, indicating a 10-15 fold expansion in a single step. The cells could be used for subsequent experiments or further expansion by plating 10,000 cells/cm^2 into culture vessels with fresh feeder layer cells using KSR medium plus 20 ng/ml bFGF and 20 μM OPH109 as the initial culture medium.
In another experiment, single cell suspensions were prepared from hESC cells grown in organ culture dishes using trypsin/EDTA as described above. Cell were then resuspended in 5 ml KSR medium containing 20 ng/ml bFGF and 2.5 μM blebbistatin, a potent, cell permeable inhibitor of myosin II. The cell suspension was then transferred to a T25 culture flask containing fresh, mitomycin C treated human embryonic fibroblast feeder layer cells and incubated at 37° C., 5% CO2 and 5% O2. The medium was changed after 2 days (and every 2 days thereafter) using KSR medium plus 4 ng/ml bFGF. […] Colonies continued to grow in size and density over 8-10 days until the cultures were passaged again for cell counting (summarised in Table 4) and replating of 2,000-10,000 cells/cm^2 into culture vessels with fresh feeder layer cells using KSR medium plus 20 ng/ml bFGF and 2.5 μM blebbistatin as the initial culture medium. Using this method cells were expanded for >10 passages, while maintaining their pluripotency and normal karyotypes.

hESC [2] = test: Feeder layer-free monolayer hESC culture on collagen I with protectants/modulators; conditions: for doubling time: collagen I coating + Y-27632 (10 μM), SIVF019 (FIG. 4)
Protocol: A single cell suspension was prepared similar to Example 4 by first washing a T25 flask with 5 ml PBS followed by trypsinising the cells with 2 ml 0.05% trypsin/5 mM EDTA, incubating at 37° C. for 10 mins and resuspending in 10 ml DMEM medium containing 10% FBS with vigorous pipetting. Cell number and viability was determined using the NucleoCounter and an appropriate number of cells centrifuged at 250×g for 4 mins prior to resuspension in conditioned KSR medium with 20 ng/ml bFGF plus additives. Conditioned KSR medium was produced by incubation of KSR medium on mitomycin-C treated human foetal fibroblasts for 48 hrs prior to harvest and storage at −20° C. As protectants/modulators the following additives were tested: • 1. 10 μM Y-27632 • 2. 20 μM OPH109 • 3. 2.5-10 μM blebbistatin • 4. 20 μM OPH109+2.5-10 μM blebbistatin
Cells were plated in collagen I (Cell Science and Technologies) coated 96 well optical bottom plates (BD) at a density of 2×10^4 cells/cm^2, and incubated at 37° C./5% CO2/5% O2. Media were changed on every 2nd day thereafter. […] This toxic effect could in turn be counteracted by using OPH109 in addition to blebbistatin. After 4-5 days in culture cells were fixed and immunofluorescence stained for the pluripotency markers Oct-3/4, SSEA-4 and Tra-1-81 as well as the early differentiation marker CD29. The cells were imaged and analysed using an IN Cell Analyzer 1000 and IN Cell Developer Toolbox 1.7 software. FIG. 3 summarises the results for 2 cell lines, indicating the ability of protectants/modulators to facilitate feeder-free monolayer culture of undifferentiated hESC. Next, the growth rate of monolayer hESC was assessed by imagining of Hoechst (Invitrogen) stained wells using the IN Cell Analyzer 1000 in 24 hr intervals. Cell number was determined by analysis using IN Cell Developer Toolbox 1.7 and IN Cell Analyzer 1000 Workstation 3.5 software. […] There was no significant difference in cell number or proliferation between uncoated and collagen I coated growth surfaces.

SIVF019 hESC = test: Feeder free expansion of hESC using monolayer culture; conditions: SIVF019 (collagenase passaged stock), within 9 days, 3 passages, 10 μM Y-27632 at plating, collagen I
Protocol: Manually passaged and collagenase passaged hESC lines (Table 1) grown on feeder cells were dissociated into single cells using 0.05% trypsin/5 mM EDTA as described in Example 5. Cells were plated into a collagen I coated plates at ˜2×10^4/cm^2 in Conditioned KSR medium with 20 ng/ml bFGF and 10 μM Y-27632, and incubated at 37° C./5% CO2/5% O2 (passage 1). The medium was changed the following day, then every 2nd day until cells reached ˜80% confluency. Cells were then dissociated into single cells using the 0.05% trypsin/5 mM EDTA protocol, with the exception of incubation with 0.05% trypsin/5 mM EDTA for 3 mins only, counted and plated at ˜2×10^4/cm^2 in the above described medium (passage 2). This process was repeated when cells reached confluency (passage 3). At each of the 3 passages, some of the dissociated cells were plated into 96 well plates for pluripotency assessment as described in Example 6. Within 9 days, the theoretical cell number obtained for SIVF019 (collagenase passaged stock) was 24 fold that originally plated (FIG. 6A). Manually passaged hESC SIVF002, SIVF006 and SIVF021 could also be successfully expanded as a monolayer (FIG. 6B).

hESC [3] = test: Expansion of single-cell dissociated hESC on feeder cells using protectants in the culture medium; conditions: Y27632 as protectant in the culture medium, on feeders

## CC(C)[C@H](NC(=O)c1ccc2ccccc2n1)C(=O)N[C@@H](CC(=O)O)C(=O)COc1c(F)cccc1F [OPH109, Quinoline-Val-Asp-Difluorophenoxymethylketone]
hESC [1]; 20 μM OPH109 in initial culture medium, 10,000 cells/cm^2
  number of passages cell lines were maintained (typical morphology, pluripotency markers, stable karyotype kept): > 10 passages
hESC [1]; 20 μM OPH109 in initial culture medium, >10 passages
  expansion per passage: 10-15 fold
hESC [1]; 20 μM OPH109 in initial culture medium, control without OPH109 1 out of 10
  random images (10x objective) in which colonies were observed: 6 out of the 10
hESC [1]; SIVF006, 20 μM OPH109, from 1.23 × 10^5 cells in organ culture dish to T25 flask, 8-10 days
  Viable cells after 1 expansion step: 1.97 × 10^6 cells
hESC [1]; SIVF019, 20 μM OPH109, starting cells not determined, T25 flask, 8-10 days
  Viable cells after 1 expansion step: 3.1 × 10^6 cells
hESC [1]; SIVF021, 20 μM OPH109, from 2.19 × 10^5 cells in organ culture dish to T25 flask, 8-10 days
  Viable cells after 1 expansion step: 3.00 × 10^6 cells
hESC [1]; SIVF022, 20 μM OPH109, from 3.99 × 10^5 cells in organ culture dish to T25 flask, 8-10 days
  Viable cells after 1 expansion step: 4.40 × 10^6 cells
hESC [1]; various cell lines, 20 μM OPH109, 8-10 days
  expansion in a single step: 10-15 fold
hESC [2]; 20 μM OPH109 by itself, collagen I coated 96 well plates
  cell morphology in feeder-free culture: changed to larger cytoplasm/nuclear ratios indicating cell differentiation

## C[C@@H](N)[C@H]1CC[C@H](C(=O)Nc2ccncc2)CC1 [Y-27632]
hESC [1]; Y27632 as protectant in the culture medium, on feeders
  cell viability after dissociation into single cell suspensions: dramatically increased cell viability
SIVF019 hESC
  theoretical cell number relative to that originally plated: 24 fold
hESC [2]; between 24 hrs and 48 hrs post-plating
  doubling time: 11 h
hESC [2]; between 48 hrs and 72 hrs post-plating
  doubling time: 17 h
hESC [3]
  morphology of the colonies: flat monolayers of small cells with high nuclear to cytoplasmic ratios

## Cc1ccc2c(c1)C(=O)C1(O)CCN(c3ccccc3)C1=N2 (stereo not drawn) [blebbistatin]
hESC [1]; 2.5 μM blebbistatin in initial culture medium, 2,000-10,000 cells/cm^2
  number of passages cells were expanded (pluripotency and normal karyotypes maintained): > 10 passages
hESC [1]; SIVF002, 2.5 μM blebbistatin, from 5.7 × 10^4 cells in organ culture dish to T25 flask
  Viable cells after 1 expansion step: 1.5 × 10^6 cells
hESC [1]; SIVF019 Exp 1, 2.5 μM blebbistatin, from 6.6 × 10^4 cells in organ culture dish
  Viable cells after 1 expansion step: 3.4 × 10^6 cells
hESC [1]; SIVF019 Exp 2, 2.5 μM blebbistatin, from 2.5 × 10^5 cells in organ culture dish
  Viable cells after 1 expansion step: 2.4 × 10^6 cells
hESC [1]; SIVF019 Exp 3, 2.5 μM blebbistatin, from 2.5 × 10^5 cells in organ culture dish
  Viable cells after 1 expansion step: 3.4 × 10^6 cells
hESC [1]; SIVF024, 2.5 μM blebbistatin, from 2.6 × 10^5 cells in organ culture dish
  Viable cells after 1 expansion step: 1.6 × 10^6 cells
hESC [1]; SIVF048, 2.5 μM blebbistatin, from 2.3 × 10^5 cells in organ culture dish
  Viable cells after 1 expansion step: 2.0 × 10^6 cells
hESC [1]; allows lower initial plating densities and greater expansion
  protectant strength compared with OPH109: more powerful protectant than OPH109
hESC [2]; blebbistatin 2.5-10 μM, feeder-free on collagen I
  toxicity: increased toxicity at higher concentrations
hESC [2]; tested 2.5-10 μM, feeder-free on collagen I
  concentration at which most potent as protectant/modulator: 2.5 µM
